Assays:
[1] = test system: NY p81 specific CD8+ T cells; assay: Specific CD8+ T cell induction in mice, intracellular cytokine staining (NY p81 epitope); assay type: in vivo, BALB/c mice; conditions: FIG. 5; ESO1 LP vaccines complexed with CHP, CpG oligo DNA
Excerpt: (§1) A long chain peptide antigen ESO1 LP (native type) (Sequence No. 16) and a long chain peptide antigen ESO1 LP (Y6) (Sequence No. 17), both containing a mouse CD8+ T cell epitope sequence (NY p81 or NY p82) and a mouse CD4+ T cell epitope sequence (NY p91) that are derived from human NY-ESO-1 antigen, were synthesized. As the interepitope sequence between epitopes, the native amino acid sequence of NY-ESO-1 was retained in the ESO1 LP (native type) and the sequence of six consecutive tyrosines (Y6) was used in the ESO1 LP (Y6). Vaccines containing the respective long chain peptide antigens were administered to mice in the same manner as in FIG. 1 and the frequencies of CD8+ T cells and CD4+ T cells specific to the respective epitope sequences were measured by the intracellular cytokine staining method.
(§2) Long chain peptide antigens MEN, all containing three types of mouse CD8+ T cell epitope sequences (MA p265 (Sequence No. 27), NY p81 (Sequence No. 29), and mERK2 9m (Sequence No. 28)), were synthesized. The interepitope sequences between the respective epitopes were one to six consecutive tyrosines (Sequence Nos. 1 and 9-12). Vaccines containing the respective long chain peptide antigens were administered to mice in the same manner as in FIG. 1 and the frequencies of CD8+ T cells specific to the respective epitope sequences were measured by the intracellular cytokine staining method.
as §2, with “five” for “one”, “ten” for “six”, “13-15).” for “9-12).”, “method. […]” for “method.”

[2] = test system: NY p91 specific CD4+ T cells; assay: Specific CD4+ T cell induction in mice, intracellular cytokine staining (NY p91 epitope); assay type: in vivo, BALB/c mice; conditions: FIG. 5; ESO1 LP vaccines complexed with CHP, CpG oligo DNA
Excerpt: as §1
Each CHP/long chain peptide complex as the vaccine and the CpG oligo DNA as the adjuvant were administered at the same time to a mouse. Administration was performed by subcutaneous injection on the back of the mouse. As the dose, the CHP/long chain peptide complex was administered at 0.05 to 0.1 mg equivalent of long chain peptide per administration. […]
The mouse spleen cells were added at 5×10^6 cells/0.5 mL per well to a 24-well culture plate (Nunc). […] The cells were analyzed by a flow cytometer (FACS Canto II, BD Biosciences) using the included analysis software (FACSDiva).

[3] = test system: CD8+ T cell; conditions: compared with NY p81; Non-Patent Document 8; cited from earlier work
[4] = test system: NY p157 specific CD8+ T cell clone 1G4 cells; assay: Antigen presentation by LCL electroporated with mRNA vaccine, IFN-γ ELISPOT (1G4); assay type: cell-based, human; conditions: FIG. 11; mRNA introduced into LCL by electroporation
Experimental: (§3) The interepitode sequences between the respective epitopes were the six consecutive amino acids shown in FIG. 11, namely sequence Nos. 31-34. Each mRNA was introduced in vitro as a vaccine into LCL by electroporation. Using these LCL as the antigen-presenting cells, they were co-cultured with CD8+ T cell clone 1G4 cells specific to NY p157 or CD8+ T cell clone RNT007#45 cells specific to MA4 p143 and the activation of the CD8+ T cells due to antigen presentation was measured by the IFN-γ ELISPOT method.
(§4) mRNA was introduced by an electroporation method (300V, 700 μs) using ECM830 into LCL that was rinsed and suspended in the same manner as in (9). The cells were cultured for 24 hours at 37° C. in the presence of 5% CO2 and then used as antigen-presenting cells.
(§5) 75 μL aliquots of anti-IFN-γ antibody for capture, diluted to an appropriate concentration, were dispensed into a 96-well plate (Millipore Corp., Multiscreen HA, MAHAS4510) specially designed for ELISPOT and left to stand overnight at 4° C. After discarding the liquid and rinsing with RPMI medium, 100 μL aliquots of RPMI medium containing 10% fetal bovine serum were dispensed and the plate was left to stand for not less than 1 hour at 37° C. The liquid was discarded, and the LCL prepared in (9) or (10) was adjusted to 5×10^4 cells/100 μL/well and added to each well. […]

[5] = test system: MA4 p143 specific CD8+ T cell clone RNT007 #45 cells; assay: Antigen presentation by LCL electroporated with mRNA vaccine, IFN-γ ELISPOT (RNT007 #45); assay type: cell-based, human; conditions: FIG. 11; mRNA introduced into LCL by electroporation
Experimental: as §3, §4, §5

Row | Molecule | induction of NY p81 specific CD8+ T cells [1] | induction of NY p91 specific CD4+ T cells [2] | immunogenicity [3] | activation of 1G4 cells [4] | activation of RNT007 #45 cells [5]
1 | GARGPESRLLEFYLAMPFATPMEAELARRSLAQDAPPLPV [ESO1 LP (native type), reference compound] | hardly observed | clearly observed | – | – | –
2 | GPESRLL (Peptide sequence containing mouse CD8+ T cell epitope, NY p82) | – | – | poorer in immunogenicity than NY p81 | – | –
3 | GPESRLLYYYYYYYLAMPFATPMEAELARRSLA (Long chain peptide antigen, containing a mouse CD8+ T cell epitope sequence (NY p81) and a mouse CD4+ T cell epitope sequence (NY p91)) [ESO1 LP (Y6)] | significant | clearly observed | – | – | –
4 | NMW(Y6) mRNA: mRNA (RNA vaccine) from template cDNA Sequence No. 31, encoding long chain peptide antigen NMW with Y6 interepitope sequence (nucleic acid, mRNA transcribed from template cDNA; DNA sequence of a long chain peptide antigen, containing three types of human CD8+ T cell recognition epitope sequences (NY p157, MA4 p143, and WT1 p235)) DNA: GGATCCATGAGCCTCCTGATGTGGATTACCCAATGCTATTACTACTATTACTACAACTATAAGAGATGTTTCCCCGTGATCTATTACTACTACTACTATTGCTATACATGGAATCAGATGAACCTGTGAGAATTC | – | – | – | clearly confirmed | clearly confirmed
